Source: paper PMC4624963, “Enzymatic Characterization of Recombinant Food Vacuole Plasmepsin 4 from the Rodent Malaria Parasite Plasmodium berghei” (PLoS ONE, 2015)
Like-named read-outs stand apart in the source and are kept apart here. Where a SMILES comes first, the peptide text is derived from it. [ ]: non-standard residue; d: D form. The star is where a group is joined. Sta = CC(C)C[C@H](N)[C@@H](O)CC(=O)O; Isovaleryl = CC(C)CC(=O)*

Columns and labels:
[1] = biological target: PoPM4; conditions: read-out: Dissociation Constant (K i) PoPM4; cited from earlier work
[2] = biological target: PmPM4; conditions: read-out: Dissociation Constant (K i) PmPM4; cited from earlier work
[3] = biological target: T1, PbPM4 (Plasmodium berghei, UniProt O76965); assay: Kinetic analysis of cleavage of chromogenic peptide substrates by mature PbPM4; type: biochemical; conditions: sodium citrate pH 5.0, 37°C
T1 sequence (O76965 entry or part of it): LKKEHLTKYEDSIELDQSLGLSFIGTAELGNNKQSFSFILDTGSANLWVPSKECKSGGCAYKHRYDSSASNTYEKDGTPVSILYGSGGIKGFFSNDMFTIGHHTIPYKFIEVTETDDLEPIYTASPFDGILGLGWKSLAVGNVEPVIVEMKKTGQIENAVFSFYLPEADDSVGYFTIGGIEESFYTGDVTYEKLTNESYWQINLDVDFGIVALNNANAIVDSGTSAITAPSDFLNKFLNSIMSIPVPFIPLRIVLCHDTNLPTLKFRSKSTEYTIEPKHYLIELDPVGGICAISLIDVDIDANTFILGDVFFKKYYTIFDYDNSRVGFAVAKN
Method: (§1) Chromogenic peptide substrates were dissolved in a solution containing 20% dimethyl sulfoxide (DMSO), 10% formic acid, and 70% distilled deionized water to generate stock solutions. Inhibitor stock solutions were prepared in 100% DMSO. The concentrations of the stock solutions were determined by amino acid analysis.
(§2) Kinetic assays were set up in 500 mM sodium citrate, pH 5.0 at 37°C with a 5-min pre-equilibrium time with buffer. To study kinetics of the zymogen form, assays were set up in 500 mM sodium citrate, pH 5.5 at 37°C with a 5-min pre-equilibrium time. All enzymatic reactions were carried out at 37°C.
The substrate hydrolysis was analyzed by spectroscopy and defined as the decrease of the average absorbance between 284–324 nm. Pre-equilibrated enzyme was mixed with substrate at least six different concentrations (μM). The initial cleavage velocities (AU/sec) of these reactions were immediately measured on a Cary 50 Bio UV-Visible spectrophotometer. The initial cleavage rates (M/sec) were converted from the observed velocities (AU/sec) by dividing the observed velocities by the total absorbance changes upon complete enzymatic digestion of the substrate of known concentrations (i.e., AU/M).
The total concentration of active enzyme, [E]tot, was determined by titrating PbPM4 enzyme with the tight binding, competitive, aspartic proteinase inhibitor pepstatin A. A constant amount of pre-equilibrated enzyme was mixed either with 100 μM of the peptide substrate Lys-Pro-Ile-Leu-Phe*Nph-Arg-Leu or with both 100 μM of substrate and pepstatin A at a series of different concentrations. The initial cleavage rates of the substrate at different inhibitor concentrations were immediately measured afterwards using a Cary 50 Bio UV-Visible spectrophotometer.

[4] = biological target: T1, PbPM4; assay: Inhibition of mature PbPM4, dissociation constants (Ki) from initial cleavage velocities of a chromogenic peptide substrate; type: biochemical
Method: as §1, §2
(§3) Dissociation constants were determined as previously described.
(§4) The enzymes were prepared for kinetic assays: purified proPbPM4 was pre-incubated in 100 mM sodium citrate, pH 5.0, at 37°C for 5 min; purified mature PfPM1 was pre-incubated in 100 mM sodium citrate, pH 5.5, at 37°C for 3 min; all the other plasmepsins were pre-incubated in 100 mM sodium formate, pH 4.5, at 37°C for 5 min to convert zymogen to mature enzyme before the addition of substrates. Pre-incubation of hcatD was carried out in 200 mM sodium formate, pH 3.7, at 37°C for 5 min. Compound 1 was dissolved in 100% DMSO, and filtered through a 0.45 μm Costar cellulose acetate tube filter by centrifugation at 20,000 g, room temperature for 5 min to remove any particulate. The concentration of compound 1 was determined by amino acid analysis. Dissociation constants (Ki) were determined as described above.

[5] = biological target: PfPM1 (Plasmodium falciparum, UniProt P39898); assay: biochemical
PfPM1, sequence (P39898 124-452): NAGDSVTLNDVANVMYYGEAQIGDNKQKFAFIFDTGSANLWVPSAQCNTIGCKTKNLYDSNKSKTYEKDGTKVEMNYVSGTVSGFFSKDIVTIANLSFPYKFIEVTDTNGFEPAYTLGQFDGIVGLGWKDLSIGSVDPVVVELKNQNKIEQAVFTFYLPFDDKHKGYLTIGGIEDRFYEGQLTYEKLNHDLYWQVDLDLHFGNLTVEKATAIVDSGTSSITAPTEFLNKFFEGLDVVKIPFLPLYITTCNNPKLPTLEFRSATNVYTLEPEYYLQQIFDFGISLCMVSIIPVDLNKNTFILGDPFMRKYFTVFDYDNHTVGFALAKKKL
Method: as §3
(§5) Besides PbPM4, the cloning, expression and purification of recombinant human FV plasmepsins, including PfPM1, 2 and 4, PoPM4, PvPM4 and PmPM4, and hcatD were performed according to experimental procedures described in previous reports. Briefly, genes encoding N-terminally truncated semi-pro-enzymes were cloned from genomic DNA, or intra-erythrocyte stage cDNA library of Plasmodium spp. (e.g., in the case of PfPM1), and inserted to pET expression vectors (EMD Millipore). Protein expression, inclusion body preparation and in vitro protein refolding were performed as described above for PbPM4. Proteins were purified using anion exchange chromatography.
as §4, with “Compound 1 was dissolved in 100% DMSO, and filtered through a 0.45 μm Costar cellulose acetate tube filter by centrifugation at 20,000 g, room temperature for 5 min to remove any particulate.” left out

[6] = biological target: PvPM4 (Plasmodium vivax, UniProt O60989); assay: biochemical
PvPM4, sequence (O60989 122-450 limits assumed): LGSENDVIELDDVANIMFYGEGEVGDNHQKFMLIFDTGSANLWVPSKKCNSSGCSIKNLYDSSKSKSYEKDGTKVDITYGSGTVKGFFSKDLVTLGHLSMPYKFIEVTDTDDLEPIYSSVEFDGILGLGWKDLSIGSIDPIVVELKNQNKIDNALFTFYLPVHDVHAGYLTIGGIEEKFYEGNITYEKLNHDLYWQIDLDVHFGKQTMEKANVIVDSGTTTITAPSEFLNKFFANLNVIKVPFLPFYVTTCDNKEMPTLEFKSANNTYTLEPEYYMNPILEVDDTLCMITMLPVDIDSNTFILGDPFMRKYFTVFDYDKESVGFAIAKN
Method: as §3, §5
as §4, with “Compound 1 was dissolved in 100% DMSO, and filtered through a 0.45 μm Costar cellulose acetate tube filter by centrifugation at 20,000 g, room temperature for 5 min to remove any particulate.” left out

[7] = biological target: T2, human cathepsin D (hcatD) (Homo sapiens, UniProt P07339); assay: Inhibition of human cathepsin D, dissociation constants (Ki); type: biochemical; conditions: pre-incubated in 200 mM sodium formate pH 3.7, 37°C, 5 min; read-out: Dissociation Constant (K i) hCatD
T2 construct: made in house
T2 sequence (P07339 65-412): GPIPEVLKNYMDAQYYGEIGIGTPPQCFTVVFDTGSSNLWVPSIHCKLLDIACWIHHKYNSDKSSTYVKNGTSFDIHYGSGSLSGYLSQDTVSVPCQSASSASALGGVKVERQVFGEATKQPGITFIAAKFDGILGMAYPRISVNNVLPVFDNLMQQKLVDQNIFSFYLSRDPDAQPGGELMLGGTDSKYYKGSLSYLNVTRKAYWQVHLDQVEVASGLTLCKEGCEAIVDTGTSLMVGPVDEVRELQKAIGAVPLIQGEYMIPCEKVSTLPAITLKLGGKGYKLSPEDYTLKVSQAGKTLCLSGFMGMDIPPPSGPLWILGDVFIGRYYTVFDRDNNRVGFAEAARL
Method: as §3
Proteins were purified using anion exchange chromatography.
Dissociation constants (Ki) were determined as described above.

Row | Compound | Ki [1] [nM] | Ki [2] [nM] | further results
1 | CC(C)C[C@H](NC(=O)[C@@H]1CCCN1C(=O)[C@@H](N)CCCCN)C(=O)N[C@@H](CCC(=O)O)C(=O)N[C@H](CN[C@@H](Cc1ccccc1)C(=O)N[C@@H](CCCNC(=N)N)C(=O)N[C@H](C(=O)O)C(C)C)Cc1ccccc1 [Compound 5, KPLEFΨFRV] | 3.2 ± 0.5 | 3.7 ± 0.6 | 
2 | CCCC[C@@H](CN[C@@H](CC(C)C)C(=O)N[C@@H](CCC(N)=O)C(=O)N[C@H](C(=O)O)[C@@H](C)CC)NC(=O)[C@H](CO)NC(=O)[C@H](CCCC)NC(=O)[C@@H]1CCCN1C(=O)[C@@H](N)CCCCN [Compound 3, KPnLSnLΨLQI] | 187 ± 29 | 160 ± 26 | 
3 | Lys-Pro-Ile-Leu-Phe*Nph-Arg-Leu [K-P-I-L-F*Nph-R-L] |  |  | K m [3]: 2.1 ± 0.2 µM; k cat [3]: 34.9 ± 5.7 s⁻¹; k cat/K m [3]: 1.65e+07 ± 2.9e+06 M⁻¹ s⁻¹
4 | CC(C)[C@H](NC(=O)[C@@H]1CCCN1C(=O)[C@@H](N)CCCCN)C(=O)N[C@@H](CCC(=O)O)C(=O)N[C@H](CN[C@@H](CCCNC(=N)N)C(=O)N[C@@H](CCC(N)=O)C(=O)N[C@H](C(=O)O)[C@@H](C)O)Cc1ccccc1 [Compound 4, KPVEFΨRQT] | 39 ± 4.5 | 10.3 ± 1.3 | 
5 | CC(C)CC(=O)N[C@H](C(=O)N[C@H](C(=O)N[C@@H](CC(C)C)[C@@H](O)CC(=O)N[C@@H](C)C(=O)N[C@@H](CC(C)C)[C@@H](O)CC(=O)O)C(C)C)C(C)C [pepstatin A, reference compound] (Isovaleryl-VV[Sta]A[Sta]-OH) |  |  | Ki ([4]; mature PbPM4, sodium citrate pH 5.0, 37°C, 5 min pre-equilibrium, read-out: K i): 0.11 ± 0.02 nM
6 | CC(C)C[C@@H](CN[C@@H](CC(C)C)C(=O)N[C@@H](CCC(N)=O)C(=O)N[C@@H](Cc1ccccc1)C(=O)O)NC(=O)[C@H](CO)NC(=O)[C@H](Cc1ccccc1)NC(=O)[C@@H]1CCCN1C(=O)[C@@H](N)CCCCN [Compound 2, KPFSLΨLQF] | 767 ± 81 |  | 
7 | CC(C)C[C@@H](CN[C@@H](C)C(=O)N[C@@H](Cc1c[nH]c2ccccc12)C(=O)N[C@H](C(=O)O)[C@@H](C)O)NC(=O)[C@H](CCC(=O)O)NC(=O)[C@H](Cc1ccccc1)NC(=O)[C@@H]1CCCN1C(=O)[C@@H](N)CCCCN [Compound 7, KPFELΨAWT] | > 20000 | 9000 | 
8 | CC(C)C[C@H](NC(=O)[C@@H]1CCCN1C(=O)[C@@H](N)CCCCN)C(=O)N[C@@H](CCC(=O)O)C(=O)N[C@H](CN[C@@H](Cc1ccc(O)cc1)C(=O)N[C@@H](CCCNC(=N)N)C(=O)N[C@H](C(=O)O)C(C)C)Cc1ccccc1 [Compound 6, KPLEFΨYRV] | 3.2 ± 0.5 | 0.342 ± 0.047 | 
9 | N=C(N)NCCC[C@H](NC[C@H](Cc1ccccc1)NC(=O)[C@H](CCC(=O)O)NC(=O)[C@H](Cc1ccc(O)cc1)NC(=O)[C@@H]1CCCN1C(=O)[C@@H](N)CCCCN)C(=O)N[C@@H](CCC(N)=O)C(=O)N[C@@H](Cc1ccccc1)C(=O)O [Compound 1, KPYEFΨRQF] |  |  | selectivity to PbPM4 and the four plasmepsin 4 homologs of human malaria parasites versus hcatD ([4]; from K i values): > 10 fold; Ki ([4]; proPbPM4 pre-incubated in 100 mM sodium citrate pH 5.0, 37°C, 5 min, read-out: Dissociation Constant (K i) PbPM4): 3900 nM; Ki [5]: > 100000 nM; Ki [6]: 426 ± 44 nM; Ki [7]: 41000 nM
